Measurements published in patent publication US20240382482A1, “PLASMA KALLIKREIN INHIBITORS” (TAKEDA PHARMACEUTICAL COMPANY LIMITED, priority 2021, published 2024).
pEC50: −log10 of the molar value. Counter-ions that a name gives are not always drawn.

What follows are molecules tested against human activated kallikrein enzyme (Homo sapiens, UniProt P03952) (assay: Inhibition of human activated kallikrein enzyme, fluorogenic peptide substrate assay (500 pM enzyme format)). Conditions: 500 pM activated kallikrein, 300 μM PFR-AMC substrate, 30 min preincubation, 10 min reaction, room temperature; read-out: Primary Dose Response Assay: Average EC50.
Format: biochemical
In short: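 500 pM enzyme preincubated 30 min at room temperature with inhibitor in 20 mM Tris pH 7.5, 150 mM NaCl, 1 mM EDTA, 0.1% PEG-400, 0.1% Triton X-100. Reaction started with 300 μM PFR-AMC and run 10 min at room temperature. AMC fluorescence read at ex 380/em 460 nm, and EC50 values reported as ranges.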

human activated kallikrein enzyme, sequence (P03952 391-638 limits assumed): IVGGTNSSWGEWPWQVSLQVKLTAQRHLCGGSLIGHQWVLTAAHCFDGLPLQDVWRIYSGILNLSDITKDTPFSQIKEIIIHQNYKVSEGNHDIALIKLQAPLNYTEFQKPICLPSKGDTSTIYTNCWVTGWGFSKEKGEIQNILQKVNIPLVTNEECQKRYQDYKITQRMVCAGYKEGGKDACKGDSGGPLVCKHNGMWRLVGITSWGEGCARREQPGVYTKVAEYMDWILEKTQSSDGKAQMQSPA
human activated kallikrein enzyme, sequence (P03952 20-390 partner limits assumed): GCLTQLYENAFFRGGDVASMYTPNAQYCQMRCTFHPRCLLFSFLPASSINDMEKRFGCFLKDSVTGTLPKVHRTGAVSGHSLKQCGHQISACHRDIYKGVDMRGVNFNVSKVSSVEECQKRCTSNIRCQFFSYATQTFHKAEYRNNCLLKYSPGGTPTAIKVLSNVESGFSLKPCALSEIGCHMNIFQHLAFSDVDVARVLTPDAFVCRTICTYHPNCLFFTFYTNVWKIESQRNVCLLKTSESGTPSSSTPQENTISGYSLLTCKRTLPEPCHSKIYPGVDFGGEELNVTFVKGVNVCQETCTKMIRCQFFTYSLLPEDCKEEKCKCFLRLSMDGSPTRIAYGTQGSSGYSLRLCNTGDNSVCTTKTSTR

pEC50	Compound
5.05 to 6.30	CC(Cc1cccc(Cl)c1)C(=O)Nc1cc(NCc2cn3cc(C4CC4)ccc3n2)ncn1 (stereo not drawn) [Example 7, 3-(3-chlorophenyl)-N-(6-(((6-cyclopropylimidazo[1,2-a]pyridin-2-yl)methyl)amino)pyrimidin-4-yl)-2-methylpropanamide]
7.30 to 8.30	O=C(Cc1ncn2ccc(Cl)cc12)Nc1cc(NCc2cn3cc(C4CC4)ccc3n2)nc(C(F)(F)F)n1 [Example 101, 2-(7-chloroimidazo[1,5-a]pyridin-1-yl)-N-(6-(((6-cyclopropylimidazo[1,2-a]pyridin-2-yl)methyl)amino)-2-(trifluoromethyl)pyrimidin-4-yl)acetamide]
6.30 to 7.30	O=C(Cc1cnc2[nH]cc(Cl)c2c1)Nc1cc(NCc2cn3cc(C4CC4)ccc3n2)ncn1 [Example 129, 2-(3-chloro-1H-pyrrolo[2,3-b]pyridin-5-yl)-N-(6-(((6-cyclopropylimidazo[1,2-a]pyridin-2-yl)methyl)amino)pyrimidin-4-yl)acetamide]
5.05 to 6.30	O=C(Cn1c(=O)oc2ccc(Cl)cc21)Nc1cc(NCc2cn3cc(C4CC4)ccc3n2)ncn1 [Example 123, 2-(5-chloro-2-oxobenzo[d]oxazol-3 (2H)-yl)-N-(6-(((6-cyclopropylimidazo[1,2-a]pyridin-2-yl)methyl)amino)pyrimidin-4-yl)acetamide]
5.05 to 6.30	CC(C)(C(=O)Nc1cc(NCc2cn3cc(C4CC4)ccc3n2)ncn1)c1ncn2ccc(Cl)cc12 [Example 5, 2-(7-chloroimidazo[1,5-a]pyridin-1-yl)-N-(6-(((6-cyclopropylimidazo[1,2-a]pyridin-2-yl)methyl)amino)pyrimidin-4-yl)-2-methylpropanamide]
< 5.05	O=C(Cc1ncnc2ccc(Cl)cc12)Nc1cc(NCc2cn3cc(C4CC4)ccc3n2)ncn1 [Example 104, 2-(6-chloroquinazolin-4-yl)-N-(6-(((6-cyclopropylimidazo[1,2-a]pyridin-2-yl)methyl)amino)pyrimidin-4-yl)acetamide]
6.30 to 7.30	O=C(Cc1ncn2ccc(Cl)cc12)Nc1cc(C(F)(F)c2cn3cc(C4CC4)ccc3n2)ncn1 [Example 60, 2-(7-chloroimidazo[1,5-a]pyridin-1-yl)-N-(6-((6-cyclopropylimidazo[1,2-a]pyridin-2-yl)difluoromethyl)pyrimidin-4-yl)acetamide formic acid salt]
< 5.05	COc1ccc(=O)n(CC(=O)Nc2cc(NCc3cn4cc(C5CC5)ccc4n3)ncn2)c1 [Example 121, N-(6-(((6-cyclopropylimidazo[1,2-a]pyridin-2-yl)methyl)amino)pyrimidin-4-yl)-2-(5-methoxy-2-oxopyridin-1 (2H)-yl)acetamide]
7.30 to 8.30	CC(Nc1cc(NC(=O)Cc2ncn3ccc(Cl)cc23)ncn1)c1cn2cc(C3CC3)ccc2n1 (stereo not drawn) [Example 45, 2-(7-chloroimidazo[1,5-a]pyridin-1-yl)-N-(6-((1-(6-cyclopropylimidazo[1,2-a]pyridin-2-yl)ethyl)amino)pyrimidin-4-yl)acetamide]
≥ 8.30	COc1ccc(-n2cnnn2)c(CC(=O)Nc2cc(NCc3cn4cc(C5CC5)ccc4n3)ncn2)c1F [Example 37]
5.05 to 6.30	O=C(Cc1cc2c(Cl)c[nH]c2cc1F)Nc1cc(NCc2cn3cc(C4CC4)ccc3n2)ncn1 [Example 131, 2-(3-chloro-6-fluoro-1H-indol-5-yl)-N-(6-(((6-cyclopropylimidazo[1,2-a]pyridin-2-yl)methyl)amino)pyrimidin-4-yl)acetamide]
≥ 8.30	O=C(Cc1ncn2ccc(Cl)cc12)Nc1cc(NCc2cn3cc(C4CC4)cc(CO)c3n2)ncn1 [Example 44, 2-(7-chloroimidazo[1,5-a]pyridin-1-yl)-N-(6-(((6-cyclopropyl-8-(hydroxymethyl)imidazo[1,2-a]pyridin-2-yl)methyl)amino)pyrimidin-4-yl)acetamide]
5.05 to 6.30	C[C@H](c1cccc(Cl)c1)[C@@H](C)C(=O)Nc1cc(NCc2cn3cc(C4CC4)ccc3n2)ncn1 [Example 134, (2R,3S)-3-(3-chlorophenyl)-N-(6-(((6-cyclopropylimidazo[1,2-a]pyridin-2-yl)methyl)amino)pyrimidin-4-yl)-2-methylbutanamide]
≥ 8.30	O=C(Cc1ncn2ccc(Cl)cc12)Nc1ccnc(NCc2cn3cc(C4CC4)ccc3n2)n1 [Example 16, 2-(7-chloroimidazo[1,5-a]pyridin-1-yl)-N-(2-(((6-cyclopropylimidazo[1,2-a]pyridin-2-yl)methyl)amino)pyrimidin-4-yl)acetamide]
7.30 to 8.30	O=C(Cc1ncn2ccc(Cl)cc12)Nc1cncnc1NCc1cn2c(F)c(C3CC3)ccc2n1 [Example 43, 2-(7-chloroimidazo[1,5-a]pyridin-1-yl)-N-(4-(((6-cyclopropyl-5-fluoroimidazo[1,2-a]pyridin-2-yl)methyl)amino)pyrimidin-5-yl)acetamide]
≥ 8.30	CC(C)(Cc1cc(C2CC2)cn2cc(CNc3cc(NC(=O)Cc4ncn5ccc(Cl)cc45)ncn3)nc12)C(=O)O [Example 40, 3-(2-(((6-(2-(7-chloroimidazo[1,5-a]pyridin-1-yl)acetamido)pyrimidin-4-yl)amino)methyl)-6-cyclopropylimidazo[1,2-a]pyridin-8-yl)-2,2-dimethylpropanoic acid]
7.30 to 8.30	O=C(COc1cc(Cl)ccc1-n1cnnn1)Nc1cc(NCc2cn3cc(C4CC4)ccc3n2)ccn1 [Example 116, 2-(5-chloro-2-(1H-tetrazol-1-yl)phenoxy)-N-(4-(((6-cyclopropylimidazo[1,2-a]pyridin-2-yl)methyl)amino)pyridin-2-yl)acetamide]

Further lines, the molecule ahead of its results:

Compound	pEC50
Cc1cc(C(=N)N)cc(C)c1CNc1cc(NCc2cn3cc(C4CC4)ccc3n2)ncn1 [Example 99, 4-(((6-(((6-cyclopropylimidazo[1,2-a]pyridin-2-yl)methyl)amino)pyrimidin-4-yl)amino)methyl)-3,5-dimethylbenzimidamide]	≥ 8.30
Cc1cc(C(=N)N)cc(C)c1CNc1cc(OCc2cn3cc(C4CC4)ccc3n2)ncn1 [Example 72, 4-(((6-((6-cyclopropylimidazo[1,2-a]pyridin-2-yl)methoxy)pyrimidin-4-yl)amino)methyl)-3,5-dimethylbenzimidamide formic acid salt]	≥ 8.30
Nc1nccc2c1CCC2Nc1cc(NCc2cn3cc(C4CC4)ccc3n2)ncn1 (stereo not drawn) [Example 56, N^5-(6-(((6-cyclopropylimidazo[1,2-a]pyridin-2-yl)methyl)amino)pyrimidin-4-yl)-6,7-dihydro-5H-cyclopenta[c]pyridine-1,5-diamine]	7.30 to 8.30
Cc1cc(C(=N)N)cc(C)c1CNc1cc(OCc2cn3cc(C4CC4)ccc3n2)nc(CCC(=O)O)n1 [Example 74, 3-(4-((4-carbamimidoyl-2,6-dimethylbenzyl)amino)-6-((6-cyclopropylimidazo[1,2-a]pyridin-2-yl)methoxy)pyrimidin-2-yl)propanoic acid formic acid salt]	≥ 8.30
Cc1cc(C(=N)N)cc(C)c1CNc1cc(OCc2cn3cc(C4CC4)cc(CCC(=O)O)c3n2)ncn1 [Example 97, 3-(2-(((6-((4-carbamimidoyl-2,6-dimethylbenzyl)amino)pyrimidin-4-yl)oxy)methyl)-6-cyclopropylimidazo[1,2-a]pyridin-8-yl)propanoic acid]	≥ 8.30
O=C(/C=C/c1cccc(Cl)c1)Nc1cc(NCc2cn3cc(C4CC4)ccc3n2)ccn1 [Example 114, (E)-3-(3-chlorophenyl)-N-(4-(((6-cyclopropylimidazo[1,2-a]pyridin-2-yl)methyl)amino)pyridin-2-yl)acrylamide]	7.30 to 8.30
CCCCCCOC(=O)NC(=N)c1cc(C)c(CNc2cc(OCc3cn4cc(C5CC5)ccc4n3)nc(C(=O)OCC)n2)c(C)c1 [Example 87, ethyl 4-((6-cyclopropylimidazo[1,2-a]pyridin-2-yl)methoxy)-6-(4-(N-(hexyloxycarbonyl)carbamimidoyl)-2,6-dimethylbenzylamino)pyrimidine-2-carboxylate]	6.30 to 7.30
CC(=O)OCONC(=N)c1cc(C)c(CNc2cc(OCc3cn4cc(C5CC5)ccc4n3)ncn2)c(C)c1 [Example 90, ((4-(((6-((6-cyclopropylimidazo[1,2-a]pyridin-2-yl)methoxy)pyrimidin-4-yl)amino)methyl)-3,5-dimethylbenzimidamido)oxy)methyl acetate]	5.05 to 6.30
CCOC(=O)CCc1cc(C2CC2)cn2cc(COc3cc(NCc4c(C)cc(C(=N)N)cc4C)ncn3)nc12 [Example 96, ethyl 3-(2-(((6-((4-carbamimidoyl-2,6-dimethylbenzyl)amino)pyrimidin-4-yl)oxy)methyl)-6-cyclopropylimidazo[1,2-a]pyridin-8-yl)propanoate]	≥ 8.30
Cc1cc(C(=N)NO)cc(C)c1CNc1cc(OCc2cn3cc(C4CC4)ccc3n2)ncn1 [Example 71, 4-(((6-((6-cyclopropylimidazo[1,2-a]pyridin-2-yl)methoxy)pyrimidin-4-yl)amino)methyl)-N-hydroxy-3,5-dimethylbenzimidamide]	7.30 to 8.30
Cc1cc(C(=N)N)cc(C)c1CNc1cc(OCc2cn3cc(Cl)ccc3n2)ncn1 [Example 69, 4-(((6-((6-chloroimidazo[1,2-a]pyridin-2-yl)methoxy)pyrimidin-4-yl)amino)methyl)-3,5-dimethylbenzimidamide formic acid salt]	≥ 8.30
CCOC(=O)Cc1cc(C2CC2)cn2cc(COc3cc(NCc4c(C)cc(C(=N)N)cc4C)ncn3)nc12 [Example 94, ethyl 2-(2-((6-(4-carbamimidoyl-2,6-dimethylbenzylamino)pyrimidin-4-yloxy)methyl)-6-cyclopropylimidazo[1,2-a]pyridin-8-yl)acetate]	≥ 8.30
CCOC(=O)C(C)(C)Cc1nc(NCc2c(C)cc(C(=N)N)cc2C)cc(OCc2cn3cc(C4CC4)ccc3n2)n1 [Example 93, ethyl 3-(4-((4-carbamimidoyl-2,6-dimethylbenzyl)amino)-6-((6-cyclopropylimidazo[1,2-a]pyridin-2-yl)methoxy)pyrimidin-2-yl)-2,2-dimethylpropanoate]	≥ 8.30
